From patent publication US7135465B2, “Sustained release beadlets containing stavudine” (Bristol-Myers Squibb Company, priority 2000, dated 2006)

Assay: Gamma scintigraphy studies of stavudine absorption
Assay type: in vivo
Method: It has been found in gamma scintigraphy studies that stavudine is well absorbed in the upper intestine. The absorption in the colon is approximately one half that of the small intestine. The optimal formulation would be designed to release approximately 40% of the stavudine in four hours and the remainder over the next twelve to twenty hours. A 100 mg. extended dosage form of stavudine, therefore, would be designed to have the same bioavailability as the commercial 40 mg. immediate release capsules given twice daily. […] A problem in the formulation of a suitable extended dosage form of stavudine is its sensitivity to moisture that causes it to hydrolyze, primarily into thymine. This moisture sensitivity has not been a problem with the commercial non-sustained release dosage form of stavudine because it is a dry granulation that is filled into hard gelatin capsules. However, sustained release dosage forms conventionally require different compounding procedures typically including a granulation step involving an aqueous medium. […] In accordance with the present invention, a method has been found whereby stavudine can be successfully compounded into an extended release formulation utilizing conventional techniques without appreciable loss of potency due to hydrolysis.

absorption in the colon relative to that of the small intestine: approximately one half
absorption in the upper intestine: well absorbed
SMILES: Cc1cn([C@H]2C=C[C@@H](CO)O2)c(=O)[nH]c1=O [stavudine, 3′-deoxy-2′,3′-didehydrothymidine]
